These results are taken from ChEMBL document CHEMBL1147779, “N-Hydroxyurea as zinc binding group in matrix metalloproteinase inhibition: mode of binding in a complex with MMP-8” (Bioorg Med Chem Lett, 2006).

Experiment [1] deals with 72 kDa type IV collagenase (Homo sapiens, UniProt P08253). The experiment in a line: Inhibitory activity against MMP2.
The target in the next experiment is Neutrophil collagenase (Homo sapiens, UniProt P22894). The experiment in a line: Inhibitory activity against MMP8.
Chain of Neutrophil collagenase (P22894 whole entry): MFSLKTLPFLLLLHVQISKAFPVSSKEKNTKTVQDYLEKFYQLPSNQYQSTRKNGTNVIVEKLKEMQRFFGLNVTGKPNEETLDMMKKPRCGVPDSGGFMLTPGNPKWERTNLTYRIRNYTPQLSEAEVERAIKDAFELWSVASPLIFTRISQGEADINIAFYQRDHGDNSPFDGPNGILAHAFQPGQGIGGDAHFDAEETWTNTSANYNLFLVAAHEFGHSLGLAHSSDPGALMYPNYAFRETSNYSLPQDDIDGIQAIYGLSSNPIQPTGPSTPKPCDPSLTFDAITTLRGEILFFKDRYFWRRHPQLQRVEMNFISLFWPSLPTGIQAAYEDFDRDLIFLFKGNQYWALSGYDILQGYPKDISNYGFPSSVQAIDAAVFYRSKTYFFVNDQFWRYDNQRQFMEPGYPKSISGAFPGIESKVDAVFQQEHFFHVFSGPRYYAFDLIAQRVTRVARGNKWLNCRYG
Experiment [2] has as its target T1, Stromelysin-1 (Homo sapiens, UniProt P08254). The experiment in a line: Inhibitory activity against MMP3.
Target sequence in this assay (P08254 whole entry): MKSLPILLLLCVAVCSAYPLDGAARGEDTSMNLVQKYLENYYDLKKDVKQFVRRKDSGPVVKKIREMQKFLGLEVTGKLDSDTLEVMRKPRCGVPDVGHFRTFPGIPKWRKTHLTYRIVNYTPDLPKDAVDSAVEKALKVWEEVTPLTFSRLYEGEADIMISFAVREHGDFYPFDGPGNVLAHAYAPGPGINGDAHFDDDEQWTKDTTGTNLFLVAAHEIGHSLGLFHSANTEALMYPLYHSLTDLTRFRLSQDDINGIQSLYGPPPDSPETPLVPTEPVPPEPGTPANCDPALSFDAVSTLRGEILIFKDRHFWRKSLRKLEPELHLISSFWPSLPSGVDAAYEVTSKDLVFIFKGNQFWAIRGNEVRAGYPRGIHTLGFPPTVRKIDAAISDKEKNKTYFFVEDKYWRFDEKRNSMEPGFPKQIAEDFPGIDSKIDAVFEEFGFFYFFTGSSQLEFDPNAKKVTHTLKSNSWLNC
Experiment [3] deals with T1, Stromelysin-1. Nature of the experiment: Inhibitory activity against MMP3 at 120 uM.
Target sequence in this assay (P08254 100-477 limits assumed): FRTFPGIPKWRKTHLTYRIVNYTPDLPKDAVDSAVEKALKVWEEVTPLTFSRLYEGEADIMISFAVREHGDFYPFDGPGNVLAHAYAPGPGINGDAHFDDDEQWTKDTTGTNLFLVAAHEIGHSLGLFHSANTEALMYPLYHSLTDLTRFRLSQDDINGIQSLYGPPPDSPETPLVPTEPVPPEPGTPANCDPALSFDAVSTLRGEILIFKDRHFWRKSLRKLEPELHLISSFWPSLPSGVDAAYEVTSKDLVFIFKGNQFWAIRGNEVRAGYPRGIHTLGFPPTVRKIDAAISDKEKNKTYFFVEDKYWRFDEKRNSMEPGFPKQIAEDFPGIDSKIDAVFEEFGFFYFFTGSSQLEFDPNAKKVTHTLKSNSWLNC

What is called IC50 is the point on the concentration scale where inhibition reaches its midpoint. High values mean lower potency, low ones higher potency. As a reminder, the inhibition is the change of the read-out against control, counted positive when it falls.

Chain of 72 kDa type IV collagenase (P08253 whole entry): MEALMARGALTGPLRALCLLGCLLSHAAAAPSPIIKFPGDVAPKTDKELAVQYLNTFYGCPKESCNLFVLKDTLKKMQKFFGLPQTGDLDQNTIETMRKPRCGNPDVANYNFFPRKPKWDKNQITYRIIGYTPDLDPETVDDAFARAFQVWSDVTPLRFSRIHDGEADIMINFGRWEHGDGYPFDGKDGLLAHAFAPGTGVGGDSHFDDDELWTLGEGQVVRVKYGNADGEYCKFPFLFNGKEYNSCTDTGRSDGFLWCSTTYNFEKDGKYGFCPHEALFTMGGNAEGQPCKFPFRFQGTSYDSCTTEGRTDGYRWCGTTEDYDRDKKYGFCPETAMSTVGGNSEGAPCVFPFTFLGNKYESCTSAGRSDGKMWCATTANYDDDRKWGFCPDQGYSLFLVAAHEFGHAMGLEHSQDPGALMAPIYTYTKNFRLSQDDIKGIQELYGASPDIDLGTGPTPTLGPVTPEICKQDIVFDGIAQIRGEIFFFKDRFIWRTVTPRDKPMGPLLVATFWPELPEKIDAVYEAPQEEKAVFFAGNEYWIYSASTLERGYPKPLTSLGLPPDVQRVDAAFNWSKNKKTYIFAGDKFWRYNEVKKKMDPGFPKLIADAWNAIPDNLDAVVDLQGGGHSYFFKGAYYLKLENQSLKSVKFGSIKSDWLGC

Regarding `O=C(NO)NCCc1ccc(Oc2ccccc2)cc1`, the IC50 (in experiment [1]; at Neutrophil collagenase; against Stromelysin-1 [2]) was more than 380 µM in each case.

Regarding `CN(CCc1ccc(Oc2ccccc2)cc1)C(=O)NO`, the half-maximal inhibitory concentration (IC50) in experiment [1] was 685 µM; on Neutrophil collagenase, 1000 µM; against Stromelysin-1 [2], 380 µM.

As for `CN(CCOc1ccc(-c2ccc(C#N)cc2)cc1)C(=O)NO`, the IC50 in experiment [1] turned out to be 58 µM; against Stromelysin-1 [2], 200 µM.

As to `N#Cc1ccc(-c2ccc(OCCNC(=O)NO)cc2)cc1`, the IC50 (in experiment [1]; on Neutrophil collagenase) was more than 120 µM each time. The same molecule showed an inhibition against Stromelysin-1 [3] of 22%.
